Test results: patent publication US10736912B2, “Compositions containing PUFA and/or uridine and methods of use thereof” (MASSACHUSETTS INSTITUE OF TECHNOLOGY, priority 2005, dated 2020)

Columns and labels:
brain CDP-choline levels = test: Brain CDP-choline and CDP-ethanolamine levels in gerbils; type: in vivo, gerbil; details: 28 days
Source text: FIGS. 5A and 5B. FIG. 5A illustrates the effect Effects of DHA on brain CDP-choline levels (FIG. 5A) and while FIG. 5B illustrates the effect of DHA on brain CDP-ethanolamine levels (FIG. 5B). Groups of 8 gerbils received either a control or a UMP-containing diet, and, by gavage, DHA (in a vehicle of 5% gum Arabic solution) or 5% gum Arabic solution alone for 28 days. On the 29th day brains were harvested and assayed for CDP-choline. Data are presented as means±SEM. Statistical analysis was performed using one- or two-way ANOVA followed by Tukey test. a: P<0.05 when compared with the values for control diet plus vehicle group; b: P<0.05 when compared with values for UMP diet plus vehicle group.
Aliquots (2 ml) of the upper (aqueous) phase were dried under a vacuum, reconstituted, and injected into an HPLC. The dried samples were reconstituted in 100-200 μl water and were analyzed by HPLC on an anion exchange column (Alltech Hypersil APS-2, […], 250×4.6 mm). CDP-choline was eluted with a linear gradient of buffers A (H3PO4, 1.75 mM, pH 2.9) and B (NaH2PO2, 500 mM, pH 4.5) from 0 to 100% B over period of 30 min. With this system, CDP-choline was resolved from closely co-eluting substances such as UMP in an isocratic system over a period of 40 min. The retention time for CDP-choline was 9.5 min. The column was washed with buffer B at the end of each experiment and every several days to remove retained nucleotides. Individual nucleotide peaks were detected by UV absorption at 280 nm and were identified by comparison with the positions of authentic standards, as well as by the addition of nucleotide standards to samples.
To determine the effect of PUFA administration on CDP-choline levels, brain CDP-choline levels were measured in the animals from the previous Example. Administration of DHA and/or UMP decreased CDP-choline levels (FIG. 5A) and CDP-ethanolamine levels (FIG. 5B). DHA reduced CDP-choline levels by 26% (compared with those receiving just the control diet and DHA's vehicle), and in UMP-treated gerbils by 21% (compared with those receiving UMP-containing diet and DHA's vehicle) (both P<0.05).

[1] = tested on: brain phospholipid levels; test: Brain phospholipid levels in gerbils given UMP diet and/or PUFA by gavage; type: in vivo, gerbil
Procedure: Cells were homogenized in 100 volumes of ice-cold deionized water using a tissue degrader (Polytron PT 10-35, Kinematica AG, Switzerland); 1 ml of aliquots were then mixed with 3 ml of chloroform+methanol mixture (2:1 v/v) and vortexed vigorously for 30 seconds. After cooling for 1 h on ice, the mixture was mixed sequentially with 3 ml of chloroform+methanol mixture (2:1 v/v) and 1 ml of ice-cold deionized water. The mixture was vortexed vigorously and allowed to stand overnight in the cold room (18 h). The organic (lower) and aqueous (upper) phases of the mixtures were separated by centrifugation (10 min at 4° C.; 1000 g). An aliquot (2 ml) of the upper phase was used for determination of CDP-Choline (see below), and 0.1-0.4 ml aliquots of the lower phase were dried under vacuum for phospholipid analysis. Residues of 0.1 ml aliquots of the lower phase were assayed for total phospholipid content by measuring phosphorus. Residues of 0.4 ml aliquots of the lower phase were reconstituted in 40 μl methanol and subjected to thin-layer chromatography using silica G plates (Adsorbosil Plus-1®, Alltech), and a system consisting of chloroform/ethanol/triethylamine/water (30:34:30:8) as the mobile phase. Phospholipid standards were used to identify the corresponding bands under UV light after the plates were sprayed with 0.1% diphenylhexatriene in petroleum ether. Bands for individual phospholipid classes (PC, PE, SM, PS and PI) were scraped off the plates and extracted into 1 ml of methanol; dried under vacuum; and assayed for phosphorus content. Total phosphorus was determined by comparison with standard curves by using KH2PO4 run with each assay. To each sample was added 0.5 ml of 4.5% HclO4/27% H2SO4 and tubes were heated at 180° C. for 3 h. After cooling to room temperature, 5 ml of the color reagent (a 10:1 dilution of solutions containing 2.5 mg/ml ammonium molybdate, 8.2 mg/ml sodium acetate and 100 mg/ml ascorbic acid respectively) was added and the tubes were incubated for 2 h, 37° C. Absorbance was measured spectrophotometrically at 820 nm. Phospholipid mass was determined by multiplying the phosphorus content by 25.
Control standard diet (Table 4) consisted of Teklad Global 16% protein rodent diet (Harlan Teklad, Madison, Wis.), which contained 0.1% choline chloride (CC), corresponding to a daily dose of 50 mg/kg/day. UMP was provided as 0.5% UMP·2Na^+ weight/weight, added to the control diet, also prepared by Harlan Teklad, corresponding to 240 mg/kg/day UMP. DHA was administered as 300 mg/kg/day in 200 microliter (mcL)/day 5% Arabic Gum solution, while groups not receiving DHA were administered vehicle (5% Arabic Gum) alone. DHA was provided by Nu-Chek Prep (Elysian, Minn.) and UMP by Numico (Wagenigen, NL).
Gerbils were anesthetized with ketamine and xylazine (80 and 10 mg/kg bwt, i.p.) and sacrificed by immersing the head into liquid nitrogen for 2 min, followed by decapitation. Brains were immediately and quickly (30 seconds) removed using a bone rongeur and stored at −80° C.
Frozen brain hemispheres were weighed and homogenized in 100 volumes of ice-cold deionized water using a tissue degrader (Polytron PT 10-35, Kinematica AG, Switzerland), then analyzed as described in Example 1.
Protein in whole brain homogenate sample was measured for using bicinchoninic acid reagent (Perkin Elmer, Norwalk, Conn., USA). DNA was measured by measuring 460 nm emission of samples on a fluorometer in the presence of bisbenzimidizole, a fluorescent dye known as Hoechst H 33258 (American Hoechst Corporation), which has an excitation maximum at 356 nm and an emission maximum of 458 when bound to DNA.
Male gerbils weighing 80-100 g were divided into 4 groups of 8 gerbils and administered the supplements depicted in Table 1: […]

CCC=CCC=CCC=CCC=CCC=CCC=CCCC(=O)O [DHA, 4,7,10,13,16,19-docosahexaenoic acid]
CDP-choline levels (FIG. 5A) (brain CDP-choline levels): decreased | CDP-ethanolamine levels (FIG. 5B) (brain CDP-choline levels): decreased | Brain phospholipid levels ([1]; 3 weeks, Table 6): increased | Increase in levels of total phospholipids over control group ([1]; 4 weeks, gerbil brain): 12% | Total PtdCho ([1]; Table 5 part A): 185 ± 12 nmol/mg prt | Total PtdEtn ([1]; Table 5 part A): 78 ± 5 nmol/mg prt | Total PtdSer ([1]; Table 5 part A): 39 ± 3 nmol/mg prt | Total Ptdins ([1]; Table 5 part A): 32 ± 2 nmol/mg prt
